{"source": "patent US20100029615A1", "about": "“BENZIMIDAZOLE DERIVATIVES” (priority 2006, published 2010)", "data": [{"target": "T1, SMO (Mus musculus, UniProt P56726)", "T1 construct": "endogenous in cells; host or cells: C3H10T1/2 (ATCC #CCL-226)", "T1 sequence (P56726 33-793)": "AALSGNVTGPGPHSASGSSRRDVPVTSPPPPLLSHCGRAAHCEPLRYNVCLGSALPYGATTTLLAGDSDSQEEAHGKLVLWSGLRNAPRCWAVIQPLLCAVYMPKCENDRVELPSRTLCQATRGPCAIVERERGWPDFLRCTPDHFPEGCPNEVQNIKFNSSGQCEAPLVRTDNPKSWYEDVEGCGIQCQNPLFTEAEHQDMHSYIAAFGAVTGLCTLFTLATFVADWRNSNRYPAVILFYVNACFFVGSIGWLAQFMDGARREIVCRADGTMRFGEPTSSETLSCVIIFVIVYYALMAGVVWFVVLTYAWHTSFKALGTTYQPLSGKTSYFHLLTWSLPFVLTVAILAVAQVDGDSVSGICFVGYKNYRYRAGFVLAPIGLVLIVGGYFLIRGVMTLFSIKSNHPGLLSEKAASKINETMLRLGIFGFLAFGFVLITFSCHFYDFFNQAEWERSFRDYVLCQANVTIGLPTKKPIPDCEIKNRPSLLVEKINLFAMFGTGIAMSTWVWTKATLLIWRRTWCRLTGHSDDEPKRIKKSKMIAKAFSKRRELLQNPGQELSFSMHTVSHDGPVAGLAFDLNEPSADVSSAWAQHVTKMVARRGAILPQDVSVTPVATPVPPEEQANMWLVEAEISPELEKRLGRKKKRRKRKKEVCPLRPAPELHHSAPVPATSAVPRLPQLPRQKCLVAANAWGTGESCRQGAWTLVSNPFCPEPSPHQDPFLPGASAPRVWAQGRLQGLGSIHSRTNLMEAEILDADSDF", "assay": "Smoothened (SMO)/Sonic Hedgehog (SHh) Transient Transcriptional Activation Assay (Gli-luciferase reporter in C3H10T1/2 cells)", "format": "cell-based, murine", "conditions": "2 uM test compound, SHh 250 ng/ml, 20 hrs", "how_it_was_run": "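C3H10T1/2 cells transiently transfected with a 10× murine Gli-responsive firefly luciferase reporter plus pEGFP, serum-starved 20 h in 0.5% calf serum, then treated with compounds (2 uM–2 nM final) and 250 ng/ml recombinant human SHh for 20 h at 37 °C. Read-out: Dual-Glo luminescence.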", "units": {"SMO % inhibition at 2 uM": "%"}, "values": [{"substance": "N-((1R,3R)-3-(1H-benzo[d]imidazol-2-yl)cyclohexyl)-3-oxo-3,4-dihydro-2H-benzo[b][1,4]oxazine-6-carboxamide and N-((1S,3S)-3-(1H-benzo[d]imidazol-2-yl)cyclohexyl)-3-oxo-3,4-dihydro-2H-benzo[b][1,4]oxazine-6-carboxamide [Example 48]", "SMO % inhibition at 2 uM": 80}, {"substance": "N-((1R,3R)-3-(5-Methoxy-1H-benzo[d]imidazol-2-yl)cyclohexyl)-2,3-dihydrobenzo[b][1,4]dioxine-6-carboxamide and N-((1S,3S)-3-(5-methoxy-1H-benzo[d]imidazol-2-yl)cyclohexyl)-2,3-dihydrobenzo[b][1,4]dioxine-6-carboxamide [Example 49]", "SMO % inhibition at 2 uM": 92}, {"substance": "N-((1R,3S)-3-(1H-benzo[d]imidazol-2-yl)cyclohexyl]-2,3-dihydrobenzo[b][1,4]dioxine-6-carboxamide and N-((1S,3R)-3-(1H-benzo[d]imidazol-2-yl)cyclohexyl)-2,3-dihydrobenzo[b][1,4]dioxine-6-carboxamide [Example 2]", "SMO % inhibition at 2 uM": 84}]}]}
